Consider six compounds from ChEMBL document CHEMBL4382277, “Novel Fluorescence Competition Assay for Retinoic Acid Binding Proteins” (ACS Med Chem Lett, 2018).

Molecules are shown by their SMILES. Activity calls are given as the source filed them. The calls are words filed in the database; no cut-off is given here.

For the first assay, the target named is T1, Cellular retinoic acid-binding protein 2 (Homo sapiens, UniProt P29373).
T1 sequence (P29373 whole entry): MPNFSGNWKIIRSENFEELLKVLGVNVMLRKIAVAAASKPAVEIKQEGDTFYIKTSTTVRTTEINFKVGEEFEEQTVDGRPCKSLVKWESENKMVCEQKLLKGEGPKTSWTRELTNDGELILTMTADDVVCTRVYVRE
The assay can be described thus: Displacement of DC271 from CRABP2 (unknown origin) by fluorescence assay.
The compound `CC1(C)CCC(C)(C)c2cc(C#Cc3ccc(C(=O)O)cc3)ccc21` yielded a Kd of 160 nM. This lies in the sub-micromolar range.

The next assay addresses T2, Cellular retinoic acid-binding protein 2 (Homo sapiens) (UniProt P29373).
T2 sequence (whole entry): T1 sequence (P29373 whole entry)
The assay can be described thus: Displacement of DC271 from CRABP2 (unknown origin) at 200 to 1600 nM by fluorescence assay.
As for `c1ccc2ncccc2c1`, the inhibition entry is “inactive”.
The same measure, in the same setting: the result for `O=C(O)c1ccccc1` reads “inactive”.
Same read-out and setting: the result for `CC1=C(/C=C/C(C)=C/C=C/C(C)=C\C(=O)O)C(C)(C)CCC1` reads “inactive”.
The same measure, in the same setting: the result for `CC1=C(/C=C/C(C)=C/C=C/C(C)=C/C(=O)O)C(C)(C)CCC1` reads “Active”; that for `CC1=C(/C=C/C(C)=C\C=C\C(C)=C\C(=O)O)C(C)(C)CCC1`, “Active”.

In general, Kd refers to the concentration at which binding is half-saturated. A higher Kd goes with lower affinity.
